Results taken from US10526343B2, “Heterocyclic systems and pharmaceutical applications thereof” (University of Sharjah, priority 2018, dated 2020).
Values after ≈ are worked out from the molar mass of the structure shown.

How the values were obtained:
S. aureus (ATCC 25923) = test: MIC by broth microdilution; type: cell-based; details: Staphylococcus aureus, ATCC25923
Description: (§1) Bacteria of the genus Staphylococcus were selected for MIC investigation due to its clinical importance. Compounds showing activity against S. aureus (ATCC 25923) were tested against 10 multidrug-resistant strains of Staphylococcus species, including: clinical isolates methicillin-resistant Staphylococcus aureus (MRSA) strains MRSA-1, MRSA-2, and MRSA-3, and environmental isolates S. saprophyticus (strains UDH-1, UDH-2, UDH-3 and UDH-4), S. haemolyticus (strains UDH-6 and UDH-7), and S. epidermidis strain UDH-5.
(§2) A broth microdilution method was used to measure MIC according to the Clinical and Laboratory Standards Institute guidelines. Two-fold serial dilutions of the test compound (8 concentrations ranged between 100-0.78 μg/mL) were tested. Two reference antibiotics were used as quality controls (ciprofloxacin and amikacin). In each experiment, solvent (DMSO) was used as a negative control, un-treated control (composing of bacteria in Mueller-Hinton broth) was used as a growth control, blank (culture media alone) was used as sterility control. The 96-well microplate with the test compounds was incubated for 20 hours at 37° C. Turbidity in wells indicated bacterial growth. […] For the definite determination of MIC, CellTiter-Blue® Cell Viability Assay (Promega, USA) was used (as above). The MIC was defined as the lowest compound concentration that prevented the color change of the Cell Viability solution (absence of bacterial growth; thus, suspension remained blue in color). For the definite determination of MIC, CellTiter-Blue® Cell Viability Assay (Promega, USA) was used (as above). To each well of the 96-well microplate, 20 μL of the Cell Viability Assay solution was added to the overnight (20 hours culture) and incubated at 37° C. for 4 hours. After the end of the incubation, pink and blue colors were used to differentiate viable from dead bacterial suspensions, respectively. The MIC was defined as the lowest compound concentration that prevented the color change.

[1] = system: UDH-1 (environmental isolate, S. saprophyticus); test: MIC by broth microdilution; type: cell-based; details: for MIC: Staphylococcus saprophyticus, environmental isolate; for times lower than MIC of ciprofloxacin: UDH-1
Description: as §1
(§3) All these strains were resistant to at least three antibiotics from different classes, as confirmed by a disk diffusion assay.
as §2

[2] = system: UDH-2 (environmental isolate, S. saprophyticus); test: MIC by broth microdilution; type: cell-based; details: Staphylococcus saprophyticus
Description: as §1, §3, §2

[3] = system: UDH-3 (environmental isolate, S. saprophyticus); test: MIC by broth microdilution; type: cell-based; details: for MIC: Staphylococcus saprophyticus, environmental isolate; for times lower than MIC of ciprofloxacin: UDH-3
Description: as §1, §3, §2

[4] = system: UDH-4 (environmental isolate, S. saprophyticus); test: MIC by broth microdilution; type: cell-based; details: Staphylococcus saprophyticus
Description: as §1, §3, §2

[5] = system: UDH-5 (environmental isolate, S. epidermidis); test: MIC by broth microdilution; type: cell-based; details: Staphylococcus epidermidis
Description: as §1, §3, §2

[6] = system: UDH-6 (environmental isolate, S. haemolyticus); test: MIC by broth microdilution; type: cell-based; details: for MIC: Staphylococcus haemolyticus, environmental isolate
Description: as §1, §3, §2

[7] = system: UDH-7 (environmental isolate, S. haemolyticus); test: MIC by broth microdilution; type: cell-based; details: for MIC: Staphylococcus haemolyticus, environmental isolate
Description: as §1, §3, §2

MRSA-1 = test: Time-kill study; type: cell-based, Staphylococcus aureus
Description: Time-kill study: Compound 1o was tested for the time required to kill the bacterial strain MRSA-1. A time-kill assay was performed by the broth micro-dilution method in accordance with the CLSI guidelines. Inoculum suspensions with approximately 5×10^5 CFU/mL of exponentially growing bacterial cells were incubated in each well of a 96-well plate. […] Aliquots of 20 μL were removed from the inoculum culture after timed intervals of incubation (i.e. 0, 30 minutes, 1, 2, 4, 6, 8, and 24 hours), and serial 10-fold dilutions were prepared in 0.85% sodium chloride solution. Then, 10-100 μL of each dilution (as appropriate) were spread on the surface of Mueller-Hinton agar plates and incubated at 37° C. for 24 hours. Plate count technique was used to determine the number of viable cells for each time point. The experiments were performed in triplicate. Meropenem and ciprofloxacin were used as quality control antibiotics.

[8] = system: Staphylococcus aureus (ATCC 25923); test: Cell viability assay (resazurin) screening for antibacterial activity; type: cell-based; parameters: key: Positive: A positive result indicates antibacterial activity expressed as growth inhibition; Negative: a negative result indicates no antibacterial activity expressed as bacterial growth at the tested concentration; details: single high concentration of 1 mg/mL
[9] = system: Enterococcus faecalis (ATCC 29212); test: as above; type: cell-based; parameters: key: Positive: A positive result indicates antibacterial activity expressed as growth inhibition; Negative: a negative result indicates no antibacterial activity expressed as bacterial growth at the tested concentration; details: single high concentration of 1 mg/mL
[10] = system: Bacillus subtilis (environmental isolate); test: as above; type: cell-based; parameters: key: Positive: A positive result indicates antibacterial activity expressed as growth inhibition; Negative: a negative result indicates no antibacterial activity expressed as bacterial growth at the tested concentration; details: single high concentration of 1 mg/mL
[11] = system: Escherichia coli (ATCC 25922); test: as above; type: cell-based; parameters: key: Positive: A positive result indicates antibacterial activity expressed as growth inhibition; Negative: a negative result indicates no antibacterial activity expressed as bacterial growth at the tested concentration; details: single high concentration of 1 mg/mL
[12] = system: Pseudomonas aeruginosa (ATCC 27853); test: as above; type: cell-based; parameters: key: Positive: A positive result indicates antibacterial activity expressed as growth inhibition; Negative: a negative result indicates no antibacterial activity expressed as bacterial growth at the tested concentration; details: single high concentration of 1 mg/mL
[13] = system: MRSA-1 (clinical isolate, methicillin-resistant Staphylococcus aureus); test: MIC by broth microdilution; type: cell-based; details: for MIC: Staphylococcus aureus, MRSA, clinical isolate
Description: (§4) Bacteria of the genus Staphylococcus were selected for MIC investigation due to its clinical importance.
as §2, with “Two reference antibiotics were used as quality controls (ciprofloxacin and amikacin).” left out

[14] = system: MRSA-2 (clinical isolate, methicillin-resistant Staphylococcus aureus); test: MIC by broth microdilution; type: cell-based
Description: as §4
as §2, with “Two reference antibiotics were used as quality controls (ciprofloxacin and amikacin).” left out

[15] = system: MRSA-3 (clinical isolate, methicillin-resistant Staphylococcus aureus); test: MIC by broth microdilution; type: cell-based
Description: as §4
as §2, with “Two reference antibiotics were used as quality controls (ciprofloxacin and amikacin).” left out

Compound	MIC (S. aureus (ATCC 25923)) [µg/mL]	MIC [1] [µg/mL]	MIC [2] [µg/mL]	MIC [3] [µg/mL]	MIC [4] [µg/mL]	MIC [5] [µg/mL]	MIC [6] [µg/mL]	MIC [7] [µg/mL]	antibacterial activity, Staphylococcus aureus [8]	antibacterial activity, Enterococcus faecalis [9]	antibacterial activity, Bacillus subtilis [10]	antibacterial activity, Escherichia coli [11]	antibacterial activity, Pseudomonas aeruginosa [12]	MIC [13] [µg/mL]	MIC [14] [µg/mL]	MIC [15] [µg/mL]	also measured
O=C(O)c1cn(C2CC2)c2cc(N3CCNCC3)c(F)cc2c1=O [Ciprofloxacin, ciprofloxacin, reference compound]	0.5 (≈ 1.51 µM)	64 (≈ 193 µM)	64 (≈ 193 µM)	64 (≈ 193 µM)	64 (≈ 193 µM)	< 0.25	64 (≈ 193 µM)	64 (≈ 193 µM)	–	–	–	–	–	–	–	–	time of exposure at which killing was achieved (complete growth inhibition) (MRSA-1; 32-256 μg/mL): 24 h
COC(=O)CC1COc2c(cc3c4c2CCCN4CCC3)-c2c(NC(C)(C)C)n3c(-c4cccc5c4OCO5)c(C)sc3[n+]21 (centres unmarked) [Compound 1u]	3.12	6.25	6.25	3.12	6.25	1.56	6.25	6.25	Positive	Positive	Positive	Negative	Negative	3.12	3.12	3.12	times lower than the MIC of ciprofloxacin ([13]; MRSA-1): approximately 10 times; times lower than MIC of ciprofloxacin [1]: approximately 10 times; times lower than MIC of ciprofloxacin [3]: approximately 20 times; times lower than MIC of ciprofloxacin ([6]; UDH-6): approximately 10 times; times lower than MIC of ciprofloxacin ([7]; UDH-7): approximately 10 times
COC(=O)CC1COc2c(cc3c4c2CCCN4CCC3)-c2c(NC(C)(C)C)n3c4ccc(Br)cc4sc3[n+]21 (centres unmarked) [Compound 1v]	12.5	12.5	25	12.5	25	6.25	50	50	Positive	Positive	Positive	Negative	Negative	12.5	12.5	12.5	–
COC(=O)CC1COc2c(cc3c4c2CCCN4CCC3)-c2c(NC(C)(C)C)n3c(-c4ccc(NC(C)=O)cc4)csc3[n+]21 (centres unmarked) [Compound 1w]	6.25	12.5	25	12.5	12.5	6.25	50	50	Positive	Positive	Positive	Negative	Negative	12.5	12.5	12.5	–
COC(=O)CC1COc2c(cc3c4c2CCCN4CCC3)-c2c(NC(C)(C)C)n3c(-c4ccc(OC)cc4)c(-c4ccc(OC)cc4)sc3[n+]21 (centres unmarked) [Compound 1z]	3.12	12.5	6.25	12.5	3.12	1.56	12.5	12.5	Positive	Positive	Positive	Negative	Negative	6.25	6.25	6.25	–
COC(=O)CC1COc2c(cc3c4c2CCCN4CCC3)-c2c(NC(C)(C)C)n3c(-c4ccccc4)c(-c4ccccc4)sc3[n+]21 (centres unmarked) [Compound 2a]	6.25	6.25	6.25	3.12	6.25	1.56	6.25	12.5	positive antibacterial activities	Positive	Positive	Negative	Negative	6.25	3.12	3.12	times lower than MIC of ciprofloxacin [1]: approximately 10 times; times lower than MIC of ciprofloxacin [3]: approximately 20 times
COC(=O)CC1COc2c(cc3c4c2CCCN4CCC3)-c2c(N)n3c(-c4ccc(F)cc4)c(C)sc3[n+]21 (centres unmarked) [Compound 2b]	12.5	12.5	12.5	25	12.5	6.25	25	25	Positive	Positive	Positive	Negative	Negative	12.5	12.5	12.5	–
C[C@@H](O)[C@H]1C(=O)N2C(C(=O)O)=C(S[C@@H]3CN[C@H](C(=O)N(C)C)C3)[C@H](C)[C@H]12 [meropenem, reference compound]	–	–	–	–	–	–	–	–	–	–	–	–	–	–	–	–	time of exposure at which killing was achieved (MRSA-1; 8 μg/mL): 8 h; time of exposure at which killing was achieved (MRSA-1; 16 μg/mL): 6 h; time of exposure at which killing was achieved (MRSA-1; 2-4 μg/mL): 24 h; time of exposure at which killing was achieved (complete inhibition of bacterial growth) (MRSA-1; 32-64 μg/mL): 4 h
